Experimental data from US20140323300A1, “HERBICIDAL COMPOUNDS” (SYNGENTA LIMITED, priority 2011, published 2014).

How the values were obtained:
Type in all cases: in vivo
[1] = tested on: Alopecurus myosuroides (ALOMY); assay: Post-emergence glasshouse herbicide test; conditions: post-emergence (sprayed after 8 days cultivation), 1000 g/h, evaluated after 13 days, five point scale
Description: (§1) Seeds of a variety of test species are sown in standard soil in pots (Alopecurus myosuroides (ALOMY), Setaria faberi (SETFA), Echinochloa crus-galli (ECHCG), Solanum nigrum (SOLNI), Amaranthus retoflexus (AMARE), Ipomoea hederacea (IPOHE)). After cultivation for one day (pre-emergence) or after 8 days cultivation (post-emergence) under controlled conditions in a glasshouse (at 24/16° C., day/night; 14 hours light; 65% humidity), the plants are sprayed with an aqueous spray solution derived from the formulation of the technical active ingredient in acetone/water (50:50) solution containing 0.5% Tween 20 (polyoxyethelyene sorbitan monolaurate, CAS RN 9005-64-5). Compounds are applied at 1000 g/h. The test plants are then grown in a glasshouse under controlled conditions in a glasshouse (at 24/16° C., day/night; 14 hours light; 65% humidity) and watered twice daily. After 13 days for pre and post-emergence, the test is evaluated for the percentage damage caused to the plant. The biological activities are shown in the following table on a five point scale (5=80-100%; 4=60-79%; 3=40-59%; 2=20-39%; 1=0-19%).

[2] = tested on: Amaranthus retoflexus (AMARE); assay: Post-emergence glasshouse herbicide test; conditions: post-emergence (sprayed after 8 days cultivation), 1000 g/h, evaluated after 13 days, five point scale
Description: as §1

[3] = tested on: Echinochloa crus-galli (ECHCG); assay: Post-emergence glasshouse herbicide test; conditions: post-emergence (sprayed after 8 days cultivation), 1000 g/h, evaluated after 13 days, five point scale
Description: as §1

[4] = tested on: Ipomoea hederacea (IPOHE); assay: Post-emergence glasshouse herbicide test; conditions: post-emergence (sprayed after 8 days cultivation), 1000 g/h, evaluated after 13 days, five point scale
Description: as §1

Setaria faberi (SETFA) [5] = assay: Post-emergence glasshouse herbicide test; conditions: post-emergence (sprayed after 8 days cultivation), 1000 g/h, evaluated after 13 days, five point scale
Description: as §1

Solanum nigrum (SOLNI) [6] = assay: Post-emergence glasshouse herbicide test; conditions: post-emergence (sprayed after 8 days cultivation), 1000 g/h, evaluated after 13 days, five point scale
Description: as §1

[7] = tested on: Alopecurus myosuroides (ALOMY); assay: Pre-emergence glasshouse herbicide test; conditions: pre-emergence (sprayed after one day cultivation), 1000 g/h, evaluated after 13 days, five point scale
Description: as §1

[8] = tested on: Amaranthus retoflexus (AMARE); assay: Pre-emergence glasshouse herbicide test; conditions: pre-emergence (sprayed after one day cultivation), 1000 g/h, evaluated after 13 days, five point scale
Description: as §1

[9] = tested on: Echinochloa crus-galli (ECHCG); assay: Pre-emergence glasshouse herbicide test; conditions: pre-emergence (sprayed after one day cultivation), 1000 g/h, evaluated after 13 days, five point scale
Description: as §1

[10] = tested on: Ipomoea hederacea (IPOHE); assay: Pre-emergence glasshouse herbicide test; conditions: pre-emergence (sprayed after one day cultivation), 1000 g/h, evaluated after 13 days, five point scale
Description: as §1

Setaria faberi (SETFA) [11] = assay: Pre-emergence glasshouse herbicide test; conditions: pre-emergence (sprayed after one day cultivation), 1000 g/h, evaluated after 13 days, five point scale
Description: as §1

Solanum nigrum (SOLNI) [12] = assay: Pre-emergence glasshouse herbicide test; conditions: pre-emergence (sprayed after one day cultivation), 1000 g/h, evaluated after 13 days, five point scale
Description: as §1

Structure (SMILES)	percentage damage caused to the plant, POST Application ALOMY [1]	percentage damage caused to the plant, POST Application AMARE [2]	percentage damage caused to the plant, POST Application ECHCG [3]	percentage damage caused to the plant, POST Application IPOHE [4]	percentage damage caused to the plant, POST Application SETFA (Setaria faberi (SETFA) [5])	percentage damage caused to the plant, POST Application SOLNI (Solanum nigrum (SOLNI) [6])	percentage damage caused to the plant, PRE Application ALOMY [7]	percentage damage caused to the plant, PRE Application AMARE [8]	percentage damage caused to the plant, PRE Application ECHCG [9]	percentage damage caused to the plant, PRE Application IPOHE [10]	percentage damage caused to the plant, PRE Application SETFA (Setaria faberi (SETFA) [11])	percentage damage caused to the plant, PRE Application SOLNI (Solanum nigrum (SOLNI) [12])
C=Cc1cnn(-c2ccc(C(F)(F)F)nc2C)c(=O)c1O [Compound 1.021]	3 (3=40-59%)	5 (5=80-100%)	5 (5=80-100%)	5 (5=80-100%)	5 (5=80-100%)	5 (5=80-100%)	3 (3=40-59%)	5 (5=80-100%)	5 (5=80-100%)	5 (5=80-100%)	5 (5=80-100%)	5 (5=80-100%)
Cc1c(-n2ncc(C#N)c(O)c2=O)ccc(S(C)(=O)=O)c1C1=NOCC1 [Compound 1.026]	1 (1=0-19%)	5 (5=80-100%)	5 (5=80-100%)	5 (5=80-100%)	5 (5=80-100%)	5 (5=80-100%)	1 (1=0-19%)	5 (5=80-100%)	5 (5=80-100%)	5 (5=80-100%)	5 (5=80-100%)	5 (5=80-100%)
CCc1ccc(-n2ncc(CC)c(O)c2=O)c(S(C)(=O)=O)c1 [Compound 1.038]	4 (4=60-79%)	5 (5=80-100%)	5 (5=80-100%)	5 (5=80-100%)	5 (5=80-100%)	5 (5=80-100%)	4 (4=60-79%)	5 (5=80-100%)	5 (5=80-100%)	5 (5=80-100%)	5 (5=80-100%)	5 (5=80-100%)
COc1cnn(-c2ccc(C(F)(F)F)cc2C(F)(F)F)c(=O)c1O [Compound 1.014]	1 (1=0-19%)	5 (5=80-100%)	1 (1=0-19%)	3 (3=40-59%)	4 (4=60-79%)	5 (5=80-100%)	1 (1=0-19%)	1 (1=0-19%)	1 (1=0-19%)	1 (1=0-19%)	1 (1=0-19%)	1 (1=0-19%)
CCc1cnn(-c2ccc(Cl)cc2S(C)(=O)=O)c(=O)c1O [Compound 1.037]	5 (5=80-100%)	5 (5=80-100%)	5 (5=80-100%)	4 (4=60-79%)	5 (5=80-100%)	5 (5=80-100%)	5 (5=80-100%)	5 (5=80-100%)	5 (5=80-100%)	4 (4=60-79%)	5 (5=80-100%)	5 (5=80-100%)
C[S+]([O-])c1cnn(-c2ccc(C(F)(F)F)cc2S(C)(=O)=O)c(=O)c1O (stereo not drawn) [Compound 1.041]	1 (1=0-19%)	5 (5=80-100%)	4 (4=60-79%)	4 (4=60-79%)	2 (2=20-39%)	5 (5=80-100%)	1 (1=0-19%)	5 (5=80-100%)	4 (4=60-79%)	4 (4=60-79%)	2 (2=20-39%)	5 (5=80-100%)
O=c1c(O)c(Cl)cnn1-c1ccc(C(F)(F)F)cc1C(F)(F)F [Compound 1.015]	5 (5=80-100%)	5 (5=80-100%)	5 (5=80-100%)	5 (5=80-100%)	5 (5=80-100%)	5 (5=80-100%)	1 (1=0-19%)	5 (5=80-100%)	2 (2=20-39%)	4 (4=60-79%)	1 (1=0-19%)	5 (5=80-100%)
O=c1c(O)c(Cl)cnn1-c1ccc(Cl)cc1Cl [Compound 1.001]	1 (1=0-19%)	5 (5=80-100%)	5 (5=80-100%)	5 (5=80-100%)	5 (5=80-100%)	5 (5=80-100%)	2 (2=20-39%)	4 (4=60-79%)	4 (4=60-79%)	1 (1=0-19%)	4 (4=60-79%)	3 (3=40-59%)
Cc1nc(C(F)(F)F)ccc1-n1ncc(S(C)(=O)=O)c(O)c1=O [Compound 1.029]	1 (1=0-19%)	3 (3=40-59%)	4 (4=60-79%)	2 (2=20-39%)	4 (4=60-79%)	4 (4=60-79%)	1 (1=0-19%)	3 (3=40-59%)	4 (4=60-79%)	2 (2=20-39%)	4 (4=60-79%)	4 (4=60-79%)
